From US11419335B2, “N-arylated analogues and uses thereof” (University of Florida Research Foundation, Incorporated, priority 2016, dated 2022)
Marks after values point to notes of the source that are not given here.

Assays:
[1] = tested on: methicillin-resistant Staphylococcus aureus MRSA-2 (clinical isolate); assay: MIC broth microdilution, MRSA-2; format: cell-based
Procedure: (§1) The minimum inhibitory concentration (MIC) for each tested compound was determined by the broth microdilution method as recommended by the Clinical and Laboratory Standards Institute (CLSI). In a 96-well plate, eleven two-fold serial dilutions of each compound were made in a final volume of 100 μL Luria Broth. Each well was inoculated with ˜10^5 bacterial cells at the initial time of incubation, prepared from a fresh log phase culture (OD600 of 0.5 to 1.0 depending on bacterial strain). The MIC was defined as the lowest concentration of compound that prevented bacterial growth after incubating 16 to 18 hours at 37° C. (MIC values were supported by spectrophotometric readings at OD600). DMSO served as our vehicle and negative control in each microdilution MIC assay. DMSO was serially diluted with a top concentration of 1% v/v.
as §1, with “for each compound was” for “for each tested compound was”, “Standards Institute (CLSI).^6 In a” for “Standards Institute (CLSI). In a”, “concentration of test compound that” for “concentration of compound that”, “37° C. The concentration range tested for each compound during this study was 0.10 to 100 μM. DMSO served” for “37° C. (MIC values were supported by spectrophotometric readings at OD600). DMSO served”, “1% v/v. All MIC values were obtained from a minimum of three independent experiments.” for “1% v/v.”

[2] = tested on: MRSA BAA-1707; assay: MIC broth microdilution, MRSA BAA-1707; format: cell-based, Staphylococcus aureus
Procedure: as §1, with “The MIC was defined as the lowest concentration of compound that prevented bacterial growth after incubating 16 to 18 hours at 37° C.” left out
(§2) Each well was inoculated with ˜10^5 bacterial cells at the initial time of incubation, prepared from a fresh log phase culture (OD600 of 0.5 to 1.0 depending on bacterial strain). […] The concentration range tested for each compound during this study was 0.10 to 100 μM. DMSO served as our vehicle and negative control in each microdilution MIC assay. DMSO was serially diluted with a top concentration of 1% v/v. All MIC values were obtained from a minimum of three independent experiments.

[3] = tested on: methicillin-resistant Staphylococcus epidermidis (MRSE strain ATCC 35984); assay: MIC broth microdilution, MRSE 35984; format: cell-based
Procedure: as §1
as §1, with “for each compound was” for “for each tested compound was”, “Standards Institute (CLSI).^6 In a” for “Standards Institute (CLSI). In a”, “concentration of test compound that” for “concentration of compound that”, “37° C. The concentration range tested for each compound during this study was 0.10 to 100 μM. DMSO served” for “37° C. (MIC values were supported by spectrophotometric readings at OD600). DMSO served”, “1% v/v. All MIC values were obtained from a minimum of three independent experiments.” for “1% v/v.”

[4] = tested on: vancomycin-resistant Enterococcus faecium (VRE strain ATCC 700221); assay: MIC broth microdilution, VRE 700221; format: cell-based
Procedure: as §1
as §1, with “for each compound was” for “for each tested compound was”, “Standards Institute (CLSI).^6 In a” for “Standards Institute (CLSI). In a”, “concentration of test compound that” for “concentration of compound that”, “37° C. The concentration range tested for each compound during this study was 0.10 to 100 μM. DMSO served” for “37° C. (MIC values were supported by spectrophotometric readings at OD600). DMSO served”, “1% v/v. All MIC values were obtained from a minimum of three independent experiments.” for “1% v/v.”

[5] = tested on: Acinetobacter baumannii (ATCC 1794); assay: MIC broth microdilution, A. baumannii 1794; format: cell-based
Procedure: as §1
as §1, with “for each compound was” for “for each tested compound was”, “Standards Institute (CLSI).^6 In a” for “Standards Institute (CLSI). In a”, “concentration of test compound that” for “concentration of compound that”, “37° C. The concentration range tested for each compound during this study was 0.10 to 100 μM. DMSO served” for “37° C. (MIC values were supported by spectrophotometric readings at OD600). DMSO served”, “1% v/v. All MIC values were obtained from a minimum of three independent experiments.” for “1% v/v.”

[6] = tested on: Pseudomonas aeruginosa (PAO1); assay: MIC broth microdilution, PAO1; format: cell-based
Procedure: as §1
as §1, with “for each compound was” for “for each tested compound was”, “Standards Institute (CLSI).^6 In a” for “Standards Institute (CLSI). In a”, “concentration of test compound that” for “concentration of compound that”, “37° C. The concentration range tested for each compound during this study was 0.10 to 100 μM. DMSO served” for “37° C. (MIC values were supported by spectrophotometric readings at OD600). DMSO served”, “1% v/v. All MIC values were obtained from a minimum of three independent experiments.” for “1% v/v.”

[7] = tested on: methicillin-sensitive Staphylococcus aureus ATCC 29213; assay: MIC broth microdilution, S. aureus 29213; format: cell-based
Procedure: as §1, with “The MIC was defined as the lowest concentration of compound that prevented bacterial growth after incubating 16 to 18 hours at 37° C.” left out
as §2

[8] = tested on: MRSA-1 (clinical isolate); assay: MIC broth microdilution, MRSA-1; format: cell-based, Staphylococcus aureus
Procedure: as §1, with “The MIC was defined as the lowest concentration of compound that prevented bacterial growth after incubating 16 to 18 hours at 37° C.” left out
as §2

[9] = tested on: SA-129 (clinical isolate); assay: MIC broth microdilution, SA-129; format: cell-based, Staphylococcus aureus
Procedure: as §1, with “The MIC was defined as the lowest concentration of compound that prevented bacterial growth after incubating 16 to 18 hours at 37° C.” left out
as §2

[10] = tested on: SA-147 (clinical isolate); assay: MIC broth microdilution, SA-147; format: cell-based, Staphylococcus aureus
Procedure: as §1, with “The MIC was defined as the lowest concentration of compound that prevented bacterial growth after incubating 16 to 18 hours at 37° C.” left out
as §2

[11] = tested on: SA-138 (clinical isolate); assay: MIC broth microdilution, SA-138; format: cell-based, Staphylococcus aureus
Procedure: as §1, with “The MIC was defined as the lowest concentration of compound that prevented bacterial growth after incubating 16 to 18 hours at 37° C.” left out
as §2

[12] = tested on: SA-156 (clinical isolate); assay: MIC broth microdilution, SA-156; format: cell-based, Staphylococcus aureus
Procedure: as §1, with “The MIC was defined as the lowest concentration of compound that prevented bacterial growth after incubating 16 to 18 hours at 37° C.” left out
as §2

[13] = tested on: MRSA BAA-44; assay: MIC broth microdilution, MRSA BAA-44; format: cell-based, Staphylococcus aureus
Procedure: as §1, with “The MIC was defined as the lowest concentration of compound that prevented bacterial growth after incubating 16 to 18 hours at 37° C.” left out
as §2

CCCCCCCCCCCCCCCCn1cc[n+](CCCC)c1C.[Br-] [Compound 9]
MIC MRSA-2 ([1]; Table 1A): 2.35^a | MIC MRSA-2 ([1]; Table 1B): 2.35^a μM | MIC MRSA-2 ([1]; Table 3): 2.35^a μM | MIC MRSA-2 ([1]; Table 4): 2.35a micromolar | MIC MRSA BAA-1707 ([2]; Table 1B): 2.35^a μM | MIC MRSA BAA-1707 ([2]; Table 3): 2.35^a μM | MIC MRSA 1707 ([2]; Table 4): 2.35a micromolar | MIC S. epidermidis MRSE 35984 ([3]; Table 1A): 1.17^a | MIC MRSE 35984 ([3]; Table 4): 1.17a micromolar | MIC E. faecium VRE 700221 ([4]; Table 1A): 1.17^a | MIC VRE 700221 ([4]; Table 4): 1.17a micromolar | MIC A. baumannii 1794 ([5]; Table 1A, in µM): 12.5 | MIC A. bau. 1794 ([5]; Table 4): 12.5 µM | MIC PAO1 ([6]; Table 1A): > 100 µM | MIC PAO1 ([6]; Table 4): >100 µM | MIC S. aureus 29213 ([7]; Table 1B): 2.35^a μM | MIC S. aureus 29213 ([7]; Table 3): 2.35^a μM | MIC ([8]; Table 1B): 1.56 µM | MIC ([8]; Table 3): 1.56 µM | MIC ([9]; Table 1B): 1.56 µM | MIC ([9]; Table 3): 1.56 µM | MIC SA-147 ([10]; Table 1B): 1.17^a μM | MIC SA-147 ([10]; Table 3): 1.17^a μM | MIC SA-138 ([11]; Table 1B): 1.17^a μM | MIC SA-138 ([11]; Table 3): 1.17^a μM | MIC SA-156 ([12]; Table 1B): 2.35^s μM | MIC SA-156 ([12]; Table 3): 2.35^a μM | MIC MRSA BAA-44 ([13]; Table 1B): 2.35^a μM | MIC MRSA BAA-44 ([13]; Table 3): 2.35^a μM
